Assay results as given in paper PMC4823954, “From fighting depression to conquering tumors: a novel tricyclic thiazepine compound as a tubulin polymerization inhibitor” (Cell Death & Disease, 2016).

What was measured:
Assay in all cases: KINOMEscan
Assay type in all cases: binding
Conditions in all cases: read-out: % Ctrl
[1] = biological target: T1, ABL1(F317L)-phosphorylated (Homo sapiens, UniProt P00519, F317L)
T1 construct: purchased DiscoveRx KINOMEscan

MYO3A = biological target: T2, MYO3A (Homo sapiens, UniProt Q8NEV4)
T2 construct: purchased DiscoveRx KINOMEscan
Summary of the method: (§1)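 Competition binding panel of 442 non-mutant kinases: test compound at 5 and 10 μM competed with an active-site-directed ligand for 1 h with shaking. Bound kinase was eluted with 0.5 μM ligand and quantified by qPCR; %Ctrl = (compound − positive control)/(DMSO − positive control) × 100, lower meaning tighter binding.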

PKMYT1 = biological target: T3, PKMYT1 (Homo sapiens, UniProt Q99640)
T3 construct: purchased DiscoveRx KINOMEscan
Summary of the method: as §1

[2] = biological target: T4, RSK4(Kin.Dom.2-C-terminal) (Homo sapiens, UniProt Q9UK32)
T4 construct: RSK4(Kin.Dom.2-C-terminal); purchased DiscoveRx KINOMEscan
Summary of the method: as §1

EPHA6 = biological target: T5, EPHA6 (Homo sapiens, UniProt Q9UF33)
T5 construct: purchased DiscoveRx KINOMEscan
Summary of the method: as §1

p38-delta = biological target: T6, p38-delta (Homo sapiens, UniProt O15264)
T6 construct: purchased DiscoveRx KINOMEscan
Summary of the method: as §1

FLT4 = biological target: T7, FLT4 (Homo sapiens, UniProt P35916)
T7 construct: purchased DiscoveRx KINOMEscan
Summary of the method: as §1

RET = biological target: T8, RET (Homo sapiens, UniProt P07949)
T8 construct: purchased DiscoveRx KINOMEscan
Summary of the method: as §1

CHEK2 = biological target: T9, CHEK2 (Homo sapiens, UniProt O96017)
T9 construct: purchased DiscoveRx KINOMEscan
Summary of the method: as §1

S6K1 = biological target: T10, S6K1 (Homo sapiens, UniProt P23443)
T10 construct: purchased DiscoveRx KINOMEscan
Summary of the method: as §1

PLK1 = biological target: T11, PLK1 (Homo sapiens, UniProt P53350)
T11 construct: purchased DiscoveRx KINOMEscan
Summary of the method: as §1

NEK3 = biological target: T12, NEK3 (Homo sapiens, UniProt P51956)
T12 construct: purchased DiscoveRx KINOMEscan
Summary of the method: as §1

DRAK1 = biological target: T13, DRAK1 (Homo sapiens, UniProt Q9UEE5)
T13 construct: purchased DiscoveRx KINOMEscan
Summary of the method: as §1

RAF1 = biological target: T14, RAF1 (Homo sapiens, UniProt P04049)
T14 construct: purchased DiscoveRx KINOMEscan
Summary of the method: as §1

IGF1R = biological target: T15, IGF1R (Homo sapiens, UniProt P08069)
T15 construct: purchased DiscoveRx KINOMEscan
Summary of the method: as §1

EPHB2 = biological target: T16, EPHB2 (Homo sapiens, UniProt P29323)
T16 construct: purchased DiscoveRx KINOMEscan
Summary of the method: as §1

YSK1 = biological target: T17, YSK1 (Homo sapiens, UniProt O00506)
T17 construct: purchased DiscoveRx KINOMEscan
Summary of the method: as §1

CASK = biological target: T18, CASK (Homo sapiens, UniProt O14936)
T18 construct: purchased DiscoveRx KINOMEscan
Summary of the method: as §1

FLT3(R834Q) = biological target: T19, FLT3(R834Q) (Homo sapiens, UniProt P36888, R834Q)
T19 construct: purchased DiscoveRx KINOMEscan

KIT = biological target: T20, KIT (Homo sapiens, UniProt P10721)
T20 construct: purchased DiscoveRx KINOMEscan
Summary of the method: as §1

PIK3CA(I800L) = biological target: T21, PIK3CA(I800L) (Homo sapiens, UniProt P42336, I800L)
T21 construct: purchased DiscoveRx KINOMEscan

PIM2 = biological target: T22, PIM2 (Homo sapiens, UniProt Q9P1W9)
T22 construct: purchased DiscoveRx KINOMEscan
Summary of the method: as §1

PKN2 = biological target: T23, PKN2 (Homo sapiens, UniProt Q16513)
T23 construct: purchased DiscoveRx KINOMEscan
Summary of the method: as §1

YANK1 = biological target: T24, YANK1 (Homo sapiens, UniProt Q8WU08)
T24 construct: purchased DiscoveRx KINOMEscan
Summary of the method: as §1

PDGFRA = biological target: T25, PDGFRA (Homo sapiens, UniProt P16234)
T25 construct: purchased DiscoveRx KINOMEscan
Summary of the method: as §1

[3] = biological target: T26, ABL1(Q252H)-phosphorylated (Homo sapiens, UniProt P00519, Q252H)
T26 construct: purchased DiscoveRx KINOMEscan

T22 sequence (Q9P1W9 whole entry): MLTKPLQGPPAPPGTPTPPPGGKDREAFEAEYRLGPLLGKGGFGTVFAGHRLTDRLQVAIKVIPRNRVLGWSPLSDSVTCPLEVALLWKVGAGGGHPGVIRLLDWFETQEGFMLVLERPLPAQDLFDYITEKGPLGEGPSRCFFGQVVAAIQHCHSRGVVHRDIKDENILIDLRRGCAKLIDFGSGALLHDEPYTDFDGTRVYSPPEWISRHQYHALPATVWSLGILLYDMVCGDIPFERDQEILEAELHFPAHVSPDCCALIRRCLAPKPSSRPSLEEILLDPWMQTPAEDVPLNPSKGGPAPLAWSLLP
T6 sequence (O15264 whole entry): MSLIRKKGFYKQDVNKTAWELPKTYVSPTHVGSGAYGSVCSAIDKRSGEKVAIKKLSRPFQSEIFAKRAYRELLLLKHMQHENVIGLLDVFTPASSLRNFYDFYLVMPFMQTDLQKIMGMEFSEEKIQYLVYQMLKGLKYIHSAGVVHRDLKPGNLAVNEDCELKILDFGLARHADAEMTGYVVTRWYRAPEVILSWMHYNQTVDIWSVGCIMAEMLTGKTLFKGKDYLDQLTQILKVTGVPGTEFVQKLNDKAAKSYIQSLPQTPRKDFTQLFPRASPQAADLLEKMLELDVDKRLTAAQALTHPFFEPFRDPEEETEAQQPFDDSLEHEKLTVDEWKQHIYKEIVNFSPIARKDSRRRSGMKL
T11 sequence (P53350 whole entry): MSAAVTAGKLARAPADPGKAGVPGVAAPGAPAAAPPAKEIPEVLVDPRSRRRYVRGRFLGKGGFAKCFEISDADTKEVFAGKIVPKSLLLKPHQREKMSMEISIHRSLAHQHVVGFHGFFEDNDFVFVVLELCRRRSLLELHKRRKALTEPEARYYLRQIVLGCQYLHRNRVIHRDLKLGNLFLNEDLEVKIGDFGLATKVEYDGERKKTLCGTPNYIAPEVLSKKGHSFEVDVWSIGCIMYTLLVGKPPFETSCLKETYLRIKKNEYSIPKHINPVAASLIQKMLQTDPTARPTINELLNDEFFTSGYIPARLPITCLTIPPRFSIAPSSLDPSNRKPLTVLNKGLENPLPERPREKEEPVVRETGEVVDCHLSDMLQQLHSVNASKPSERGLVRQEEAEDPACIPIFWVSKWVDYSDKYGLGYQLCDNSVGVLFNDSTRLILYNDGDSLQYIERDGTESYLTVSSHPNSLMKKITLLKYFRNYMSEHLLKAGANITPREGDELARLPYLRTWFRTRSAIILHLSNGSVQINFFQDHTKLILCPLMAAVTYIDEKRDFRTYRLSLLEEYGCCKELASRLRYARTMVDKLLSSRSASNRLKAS
T17 sequence (O00506 whole entry): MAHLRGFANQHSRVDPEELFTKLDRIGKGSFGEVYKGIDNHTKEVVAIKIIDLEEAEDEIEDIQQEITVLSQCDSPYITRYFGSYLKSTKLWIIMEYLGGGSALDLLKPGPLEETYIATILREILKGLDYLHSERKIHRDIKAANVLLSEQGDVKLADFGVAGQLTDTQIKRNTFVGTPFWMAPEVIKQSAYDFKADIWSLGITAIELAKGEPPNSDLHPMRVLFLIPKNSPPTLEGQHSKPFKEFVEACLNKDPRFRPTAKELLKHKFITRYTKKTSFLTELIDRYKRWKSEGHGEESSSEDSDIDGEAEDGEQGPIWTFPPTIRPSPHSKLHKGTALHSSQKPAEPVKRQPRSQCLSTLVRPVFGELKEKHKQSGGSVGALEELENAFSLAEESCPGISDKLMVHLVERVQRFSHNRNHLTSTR
T18 sequence (O14936 whole entry): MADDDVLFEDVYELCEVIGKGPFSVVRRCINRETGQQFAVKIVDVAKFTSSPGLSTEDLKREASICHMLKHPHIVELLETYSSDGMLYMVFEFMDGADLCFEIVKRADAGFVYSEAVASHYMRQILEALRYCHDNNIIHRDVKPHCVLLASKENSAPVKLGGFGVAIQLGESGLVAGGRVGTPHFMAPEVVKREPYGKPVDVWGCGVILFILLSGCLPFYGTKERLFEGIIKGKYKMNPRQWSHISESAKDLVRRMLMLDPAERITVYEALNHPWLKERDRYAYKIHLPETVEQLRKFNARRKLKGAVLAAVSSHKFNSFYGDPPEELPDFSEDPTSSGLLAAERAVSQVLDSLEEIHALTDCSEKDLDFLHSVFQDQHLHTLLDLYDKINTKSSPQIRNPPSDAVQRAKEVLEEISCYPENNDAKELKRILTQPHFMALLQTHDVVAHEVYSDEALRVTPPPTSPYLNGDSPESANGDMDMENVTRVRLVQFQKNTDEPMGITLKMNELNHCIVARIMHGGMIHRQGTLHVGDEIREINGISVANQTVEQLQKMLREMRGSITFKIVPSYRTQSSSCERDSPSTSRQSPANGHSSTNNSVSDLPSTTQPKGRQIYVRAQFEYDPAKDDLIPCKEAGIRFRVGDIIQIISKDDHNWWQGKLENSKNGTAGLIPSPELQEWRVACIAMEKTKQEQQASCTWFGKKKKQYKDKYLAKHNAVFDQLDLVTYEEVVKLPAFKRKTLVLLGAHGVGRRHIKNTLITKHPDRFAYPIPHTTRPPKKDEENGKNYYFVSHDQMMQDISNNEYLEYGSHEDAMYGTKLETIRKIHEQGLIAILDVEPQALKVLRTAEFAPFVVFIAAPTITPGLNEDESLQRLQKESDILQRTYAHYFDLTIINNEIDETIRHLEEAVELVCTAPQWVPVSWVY
T15 sequence (P08069 31-1367): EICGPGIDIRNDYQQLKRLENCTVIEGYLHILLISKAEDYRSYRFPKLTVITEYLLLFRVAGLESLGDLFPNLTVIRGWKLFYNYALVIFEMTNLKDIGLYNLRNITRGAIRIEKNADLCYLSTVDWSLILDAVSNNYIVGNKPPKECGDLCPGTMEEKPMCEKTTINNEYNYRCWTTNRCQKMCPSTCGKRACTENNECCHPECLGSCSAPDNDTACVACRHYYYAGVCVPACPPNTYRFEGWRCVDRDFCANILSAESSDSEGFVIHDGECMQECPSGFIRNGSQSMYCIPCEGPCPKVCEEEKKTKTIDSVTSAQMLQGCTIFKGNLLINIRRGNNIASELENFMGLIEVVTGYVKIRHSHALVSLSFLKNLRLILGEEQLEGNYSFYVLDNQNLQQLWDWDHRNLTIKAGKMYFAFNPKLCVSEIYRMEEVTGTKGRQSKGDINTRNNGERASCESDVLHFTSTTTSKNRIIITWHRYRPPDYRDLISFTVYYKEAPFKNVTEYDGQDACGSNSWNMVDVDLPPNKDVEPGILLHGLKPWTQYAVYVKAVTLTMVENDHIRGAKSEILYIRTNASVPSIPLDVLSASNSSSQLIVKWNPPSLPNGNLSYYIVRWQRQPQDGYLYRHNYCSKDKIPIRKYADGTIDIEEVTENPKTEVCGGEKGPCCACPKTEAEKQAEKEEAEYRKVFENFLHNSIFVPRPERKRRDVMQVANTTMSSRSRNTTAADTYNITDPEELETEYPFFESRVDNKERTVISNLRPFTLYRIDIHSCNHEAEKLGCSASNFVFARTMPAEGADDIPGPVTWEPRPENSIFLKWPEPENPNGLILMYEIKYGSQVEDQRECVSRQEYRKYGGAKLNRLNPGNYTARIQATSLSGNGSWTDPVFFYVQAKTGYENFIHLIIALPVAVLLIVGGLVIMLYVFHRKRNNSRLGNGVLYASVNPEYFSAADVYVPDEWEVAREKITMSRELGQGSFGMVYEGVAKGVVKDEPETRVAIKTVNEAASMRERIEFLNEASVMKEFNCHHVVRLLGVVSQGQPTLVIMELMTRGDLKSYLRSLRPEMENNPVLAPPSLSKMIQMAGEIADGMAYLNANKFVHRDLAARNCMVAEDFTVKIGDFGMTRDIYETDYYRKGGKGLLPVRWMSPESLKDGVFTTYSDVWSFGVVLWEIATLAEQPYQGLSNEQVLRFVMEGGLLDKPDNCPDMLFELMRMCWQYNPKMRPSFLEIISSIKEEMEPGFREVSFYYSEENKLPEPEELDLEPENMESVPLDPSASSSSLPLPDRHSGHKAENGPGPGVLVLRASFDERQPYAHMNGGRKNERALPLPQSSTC
T14 sequence (P04049 whole entry): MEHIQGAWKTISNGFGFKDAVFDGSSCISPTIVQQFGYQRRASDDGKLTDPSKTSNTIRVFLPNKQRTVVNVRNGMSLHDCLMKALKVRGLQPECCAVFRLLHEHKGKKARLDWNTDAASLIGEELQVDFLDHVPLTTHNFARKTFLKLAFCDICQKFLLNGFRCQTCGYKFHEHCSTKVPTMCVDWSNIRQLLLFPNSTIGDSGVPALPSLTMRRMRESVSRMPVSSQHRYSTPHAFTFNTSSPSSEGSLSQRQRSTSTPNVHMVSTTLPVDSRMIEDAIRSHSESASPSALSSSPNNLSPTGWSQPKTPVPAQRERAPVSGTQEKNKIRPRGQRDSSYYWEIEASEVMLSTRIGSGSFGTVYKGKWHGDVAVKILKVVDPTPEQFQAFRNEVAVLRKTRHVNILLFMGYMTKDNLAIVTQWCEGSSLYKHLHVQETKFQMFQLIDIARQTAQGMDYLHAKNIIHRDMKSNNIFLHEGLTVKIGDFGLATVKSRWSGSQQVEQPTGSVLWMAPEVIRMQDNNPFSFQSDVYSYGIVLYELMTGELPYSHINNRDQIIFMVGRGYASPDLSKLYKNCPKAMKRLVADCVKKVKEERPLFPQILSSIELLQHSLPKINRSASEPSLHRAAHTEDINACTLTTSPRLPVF
T24 sequence (Q8WU08 whole entry): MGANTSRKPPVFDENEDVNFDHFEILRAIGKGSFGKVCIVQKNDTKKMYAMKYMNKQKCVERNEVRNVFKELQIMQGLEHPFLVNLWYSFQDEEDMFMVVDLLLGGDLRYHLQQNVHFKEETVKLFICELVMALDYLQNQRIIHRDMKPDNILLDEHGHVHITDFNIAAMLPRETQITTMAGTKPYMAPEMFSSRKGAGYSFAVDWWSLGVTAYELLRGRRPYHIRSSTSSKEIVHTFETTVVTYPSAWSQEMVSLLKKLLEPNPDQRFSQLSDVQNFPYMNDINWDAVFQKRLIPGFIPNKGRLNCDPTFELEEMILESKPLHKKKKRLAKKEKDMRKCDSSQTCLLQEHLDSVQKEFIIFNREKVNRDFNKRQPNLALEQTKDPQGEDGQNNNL

SMILES: Cc1ccc(C2=Nc3cccnc3S(=O)(=O)c3ccccc32)cc1 [TBPT, 6-(p-tolyl)benzo[f] pyrido[2,3-b][1,4] thiazepine 11,11-dioxide]
- remaining binding at 5 µM ([1]; 5 μM): 72%
- remaining binding at 10 µM ([1]; 10 μM): 98%
- remaining binding at 5 µM (MYO3A; 5 μM): 100%
- remaining binding at 10 µM (MYO3A; 10 μM): 90%
- remaining binding at 5 µM (PKMYT1; 5 μM): 86%
- remaining binding at 10 µM (PKMYT1; 10 μM): 99%
- remaining binding at 5 µM ([2]; 5 μM): 94%
- remaining binding at 10 µM ([2]; 10 μM): 57%
- remaining binding at 5 µM (EPHA6; 5 μM): 98%
- remaining binding at 10 µM (EPHA6; 10 μM): 92%
- remaining binding at 5 µM (p38-delta; 5 μM): 75%
- remaining binding at 10 µM (p38-delta; 10 μM): 65%
- remaining binding at 5 µM (FLT4; 5 μM): 100%
- remaining binding at 10 µM (FLT4; 10 μM): 100%
- remaining binding at 5 µM (RET; 5 μM): 100%
- remaining binding at 10 µM (RET; 10 μM): 87%
- remaining binding at 5 µM (CHEK2; 5 μM): 100%
- remaining binding at 10 µM (CHEK2; 10 μM): 100%
- remaining binding at 5 µM (S6K1; 5 μM): 100%
- remaining binding at 10 µM (S6K1; 10 μM): 88%
- remaining binding at 5 µM (PLK1; 5 μM): 76%
- remaining binding at 10 µM (PLK1; 10 μM): 80%
- remaining binding at 5 µM (NEK3; 5 μM): 100%
- remaining binding at 10 µM (NEK3; 10 μM): 100%
- remaining binding at 5 µM (DRAK1; 5 μM): 94%
- remaining binding at 10 µM (DRAK1; 10 μM): 92%
- remaining binding at 5 µM (RAF1; 5 μM): 100%
- remaining binding at 10 µM (RAF1; 10 μM): 91%
- remaining binding at 5 µM (IGF1R; 5 μM): 100%
- remaining binding at 10 µM (IGF1R; 10 μM): 79%
- remaining binding at 5 µM (EPHB2; 5 μM): 91%
- remaining binding at 10 µM (EPHB2; 10 μM): 100%
- remaining binding at 5 µM (YSK1; 5 μM): 99%
- remaining binding at 10 µM (YSK1; 10 μM): 100%
- remaining binding at 5 µM (CASK; 5 μM): 100%
- remaining binding at 10 µM (CASK; 10 μM): 100%
- remaining binding at 5 µM (FLT3(R834Q); 5 μM): 89%
- remaining binding at 10 µM (FLT3(R834Q); 10 μM): 100%
- remaining binding at 5 µM (KIT; 5 μM): 72%
- remaining binding at 10 µM (KIT; 10 μM): 100%
- remaining binding at 5 µM (PIK3CA(I800L); 5 μM): 98%
- remaining binding at 10 µM (PIK3CA(I800L); 10 μM): 72%
- remaining binding at 5 µM (PIM2; 5 μM): 100%
- remaining binding at 10 µM (PIM2; 10 μM): 100%
- remaining binding at 5 µM (PKN2; 5 μM): 100%
- remaining binding at 10 µM (PKN2; 10 μM): 95%
- remaining binding at 5 µM (YANK1; 5 μM): 96%
- remaining binding at 10 µM (YANK1; 10 μM): 100%
- remaining binding at 5 µM (PDGFRA; 5 μM): 100%
- remaining binding at 10 µM (PDGFRA; 10 μM): 100%
- remaining binding at 5 µM ([3]; 5 μM): 83%
- remaining binding at 10 µM ([3]; 10 μM): 100%
